We go through 43 compounds from patent EP2929883A1, “Pyrazole derivatives as dihydroorotate dehydrogenase (DHODH) inhibitors” (INSTITUT PASTEUR, priority 2014, dated 2015).

Molecules are shown by their SMILES. pIC50: −log10 of the molar value. ≈ marks a conversion by molar mass, not a printed value.

The test system of this assay is measles virus. Kind of assay: microbe, parasite or virus in culture. Particulars: Measles morbillivirus; for MIC50: 24 h.

Compound `CC(C)Oc1nn(-c2ncc(C3CC3)cn2)cc1[S+]([O-])c1ccccc1` (stereo not shown) [example 182, 5-cyclopropyl-2-(3-isopropoxy-4-(phenylsulfinyl)-1H-pyrazol-1-yl)pyrimidine] returned an MIC50 of 0.5 to 5 µM (≈ 0.184 to 1.84 µg/mL).
Same read-out and setting: with `Cc1c(Oc2c(F)cccc2F)c(OC(C)C)nn1-c1ccc(C2CC2)cn1` [example 9, 5-cyclopropyl-2-(4-(2,6-difluorophenoxy)-3-isopropoxy-5-methyl-1H-pyrazol-1-yl)pyridine] the figure was 0.0005 to 0.05 µM (≈ 0.000193 to 0.0193 µg/mL).
For `CCOc1nn(-c2ncc(CC)c(Cc3ccccc3)n2)cc1I` [example 167, 4-benzyl-2-(3-ethoxy-4-iodo-1H-pyrazol-1-yl)-5-ethylpyrimidine], the MIC50 fell in the range of 0.5 to 5 µM (≈ 0.217 to 2.17 µg/mL).
Still for that read-out and setting: with `CCCc1cnc(-n2nc(OC(C)C)c(Oc3c(F)cccc3F)c2C)nc1` [example 6, 2-(4-(2,6-difluorophenoxy)-3-isopropoxy-5-methyl-1H-pyrazol-1-yl)-5-propylpyrimidine] the figure was 0.0005 to 0.05 µM (≈ 0.000194 to 0.0194 µg/mL); with `COc1ccc(-n2nc(OC(C)C)c(Oc3c(F)cccc3F)c2C)nc1` [example 126, 2-(4-(2,6-difluorophenoxy)-3-isopropoxy-5-methyl-1H-pyrazol-1-yl)-5-methoxypyridine], 0.05 to 0.5 µM (≈ 0.0188 to 0.188 µg/mL).
Same read-out and setting: for `CCOc1nn(-c2ncc(CC)cn2)c(C)c1Cc1ccccc1` [example 25, 2-(4-benzyl-3-ethoxy-5-methyl-1H-pyrazol-1-yl)-5-ethylpyrimidine] the value was 0.0005 to 0.05 µM (≈ 0.000161 to 0.0161 µg/mL).
The same measure, in the same setting: with `c1ccc(Oc2cn(-c3ncc(C4CC4)cn3)nc2C2CC2)cc1` [example 119, 5-cyclopropyl-2-(3-cyclopropyl-4-phenoxy-1H-pyrazol-1-yl)pyrimidine] the figure was 0.0005 to 0.05 µM (≈ 0.000159 to 0.0159 µg/mL); with `CCC(CC)Oc1nn(-c2ncc(C3CC3)cn2)c(C)c1Cc1ccccc1` [example 141, 2-(4-benzyl-5-methyl-3-(pentan-3-yloxy)-1H-pyrazol-1-yl)-5-cyclopropylpyrimidine], 0.0005 to 0.05 µM (≈ 0.000188 to 0.0188 µg/mL); with `CCOc1ccn(-c2ncc(CC)cn2)n1` [example 166, 2-(3-ethoxy-1H-pyrazol-1-yl)-5-ethylpyrimidine], 0.5 to 5 µM (≈ 0.109 to 1.09 µg/mL).
Regarding `CCOc1nn(-c2ncc(CC)cn2)c(C)c1-c1ccc(OC)cc1` [example 161, 2-(3-ethoxy-4-(4-methoxyphenyl)-5-methyl-1H-pyrazol-1-yl)-5-ethylpyrimidine], the MIC50 fell in the range of 0.5 to 5 µM (≈ 0.169 to 1.69 µg/mL).
Still for that read-out and setting: with `CCc1cnc(-n2nc(OC(C)C)c(Oc3ccc(F)cc3F)c2C)nc1` [example 61, 2-(4-(2,4-difluorophenoxy)-3-isopropoxy-5-methyl-1H-pyrazol-1-yl)-5-ethylpyrimidine] the figure was 0.0005 to 0.05 µM (≈ 0.000187 to 0.0187 µg/mL).
Still for that read-out and setting: for `CCc1cnc(-n2nc(CC(C)C)c(Cc3ccccc3)c2C)nc1` [example 121, 2-(4-benzyl-3-isobutyl-5-methyl-1H-pyrazol-1-yl)-5-ethylpyrimidine] the value was 0.0005 to 0.05 µM (≈ 0.000167 to 0.0167 µg/mL).
On the same count and under the same terms, with `CCOc1c(Cc2ccccc2)c(C)nn1-c1ncc(Br)cn1` [example 43, 2-(4-benzyl-5-ethoxy-3-methyl-1H-pyrazol-1-yl)-5-bromopyrimidine] the figure was greater than 5 µM; with `Cc1c(Cc2ccccc2F)c(OC(C)C)nn1-c1ccc(C2CC2)cn1` [example 90, 5-cyclopropyl-2-(4-(2-fluorobenzyl)-3-isopropoxy-5-methyl-1H-pyrazol-1-yl)pyridine], 0.05 to 0.5 µM (≈ 0.0183 to 0.183 µg/mL); with `CCCCCc1cnc(-n2nc(OCC)c(Cc3ccccc3)c2C)nc1` [example 28, 2-(4-benzyl-3-ethoxy-5-methyl-1H-pyrazol-1-yl)-5-pentylpyrimidine], greater than 5 µM.
For the compound `CCCc1cnc(-n2nc(OC(C)C)c(Oc3c(F)cccc3F)c2C)c(F)c1` [example 190A, 2-(4-(2,6-difluorophenoxy)-3-isopropoxy-5-methyl-1H-pyrazol-1-yl)-3-fluoro-5-propylpyridine], the MIC50 is 0.05 to 0.5 µM (≈ 0.0203 to 0.203 µg/mL).
Same read-out and setting: with `Cc1cnc(-n2nc(OC(C)C)c(Oc3c(F)cccc3F)c2C)nc1O` [example 116, 2-(4-(2,6-difluorophenoxy)-3-isopropoxy-5-methyl-1H-pyrazol-1-yl)-5-methylpyrimidin-4-ol] the figure was 0.05 to 0.5 µM (≈ 0.0188 to 0.188 µg/mL); with `COc1cnc(-n2nc(OC(C)C)c(Oc3c(F)cccc3F)c2C)cn1` [example 173, 2-(4-(2,6-difluorophenoxy)-3-isopropoxy-5-methyl-1H-pyrazol-1-yl)-5-methoxypyrazine], 0.5 to 5 µM (≈ 0.188 to 1.88 µg/mL); with `CCOc1nn(-c2ncc(CC)cn2)c(CN2CCOCC2)c1Cc1ccccc1` [example 115, 4-((4-benzyl-3-ethoxy-1-(5-ethylpyrimidin-2-yl)-1H-pyrazol-5-yl)methyl)morpholine], greater than 5 µM.
For the compound `CCc1cnc(-n2nc(OCCCN(C)C)c(Cc3ccccc3)c2C)nc1` [example 140, 3-(4-benzyl-1-(5-ethylpyrimidin-2-yl)-5-methyl-1H-pyrazol-3-yloxy)-N,N-dimethylpropan-1-amine], the MIC50 lay in the range of 0.5 to 5 µM (≈ 0.19 to 1.9 µg/mL).
`CCc1cnc(-n2nc(OC(C)C)c(Oc3cccc(F)c3)c2C)nc1` [example 54, 5-ethyl-2-(4-(3-fluorophenoxy)-3-isopropoxy-5-methyl-1H-pyrazol-1-yl)pyrimidine] yielded an MIC50 of 0.05 to 0.5 µM (≈ 0.0178 to 0.178 µg/mL).
Same read-out and setting: for `CCOc1nn(-c2ccc(C3CC3)cn2)c(C)c1Oc1cc(Cl)ccc1Cl` [example 95, 5-cyclopropyl-2-(4-(2,5-dichlorophenoxy)-3-ethoxy-5-methyl-1H-pyrazol-1-yl)pyridine] the value was 0.05 to 0.5 µM (≈ 0.0202 to 0.202 µg/mL); for `CCOc1nn(-c2ncc(CC)cn2)c(C)c1Oc1ccccc1F` [example 73, 2-(3-ethoxy-4-(2-fluorophenoxy)-5-methyl-1H-pyrazol-1-yl)-5-ethylpyrimidine], 0.05 to 0.5 µM (≈ 0.0171 to 0.171 µg/mL).
Same read-out and setting: with `CCOc1nn(-c2ccc(C(C)(F)F)cn2)c(C)c1Cc1ccccc1` [example 99, 2-(4-benzyl-3-ethoxy-5-methyl-1H-pyrazol-1-yl)-5-(1,1-difluoroethyl)pyridine] the figure was 0.5 to 5 µM (≈ 0.179 to 1.79 µg/mL); with `CCOc1c(Cc2ccccc2)c(C)nn1-c1ncc(CC)cn1` [example 26, 2-(4-benzyl-5-ethoxy-3-methyl-1H-pyrazol-1-yl)-5-ethylpyrimidine], 0.5 to 5 µM (≈ 0.161 to 1.61 µg/mL); with `CCOc1nn(-c2ncc(C3CC3)cc2F)c(C)c1Cc1ccccc1` [example 35, 2-(4-benzyl-3-ethoxy-5-methyl-1H-pyrazol-1-yl)-5-cyclopropyl-3-fluoropyridine], 0.05 to 0.5 µM (≈ 0.0176 to 0.176 µg/mL).
The same measure, in the same setting: with `CCOc1nn(-c2ccccn2)cc1-c1ccc(Cl)cc1` [example 157, 2-(4-(4-chlorophenyl)-3-ethoxy-1H-pyrazol-1-yl)pyridine] the figure was greater than 5 µM; with `CCOc1nn(-c2ncc(C3CC3)cn2)c(C)c1Cc1ccccc1` [example 29, 2-(4-benzyl-3-ethoxy-5-methyl-1H-pyrazol-1-yl)-5-cyclopropylpyrimidine], 0.0005 to 0.05 µM (≈ 0.000167 to 0.0167 µg/mL); with `CCOc1nn(-c2ccc(C3CC3)cn2)c(C)c1Oc1ccccc1C(F)(F)F` [example 56, 5-cyclopropyl-2-(3-ethoxy-5-methyl-4-(2-(trifluoromethyl)phenoxy)-1H-pyrazol-1-yl)pyridine], 0.05 to 0.5 µM (≈ 0.0202 to 0.202 µg/mL).
For the compound `CCOc1nn(-c2ccc(OC)cc2)cc1Cc1ccccc1` [example 164, 4-benzyl-3-ethoxy-1-(4-methoxyphenyl)-1H-pyrazole], the MIC50 is greater than 5 µM.
The same measure, in the same setting: for `COc1cnc(-n2nc(OC(C)C)c(Oc3c(F)cccc3F)c2C)nc1` [example 62, 2-(4-(2,6-difluorophenoxy)-3-isopropoxy-5-methyl-1H-pyrazol-1-yl)-5-methoxypyrimidine] the value was 0.0005 to 0.05 µM (≈ 0.000188 to 0.0188 µg/mL); for `CCc1ccc(-n2nc(OC(C)C)c(Cc3ccccc3)c2C)cc1` [example 132, 4-benzyl-1-(4-ethylphenyl)-3-isopropoxy-5-methyl-1H-pyrazole], 0.5 to 5 µM (≈ 0.167 to 1.67 µg/mL); for `CCOc1nn(-c2ncc(CC)cn2)c(C)c1Oc1cccc(C(F)(F)F)c1` [example 57, 2-(3-ethoxy-5-methyl-4-(3-(trifluoromethyl)phenoxy)-1H-pyrazol-1-yl)-5-ethylpyrimidine], 0.05 to 0.5 µM (≈ 0.0196 to 0.196 µg/mL).
As to `CCOc1nn(-c2ccc(C3CC3)cn2)c(C)c1C(=O)c1ccccc1` [example 151, (1-(5-cyclopropylpyridin-2-yl)-3-ethoxy-5-methyl-1H-pyrazol-4-yl)(phenyl)methanone], the MIC50 lay in the range of 0.05 to 0.5 µM (≈ 0.0174 to 0.174 µg/mL).
Still for that read-out and setting: with `CCOc1nn(-c2ccc(C3CC3)cn2)c(C)c1C(O)c1ccccc1` (stereo not shown) [example 177, (1-(5-cyclopropylpyridin-2-yl)-3-ethoxy-5-methyl-1H-pyrazol-4-yl)(phenyl)methanol] the figure was 0.0005 to 0.05 µM (≈ 0.000175 to 0.0175 µg/mL); with `Cc1c(Oc2c(F)cccc2F)c(OC(C)C)nn1-c1ncccn1` [example 74, 2-(4-(2,6-difluorophenoxy)-3-isopropoxy-5-methyl-1H-pyrazol-1-yl)pyrimidine], 0.5 to 5 µM (≈ 0.173 to 1.73 µg/mL).
On the same count and under the same terms, with `CCOc1nn(-c2ccc(C3CC3)cn2)c(C)c1Oc1ccccc1F` [example 68, 5-cyclopropyl-2-(3-ethoxy-4-(2-fluorophenoxy)-5-methyl-1H-pyrazol-1-yl)pyridine] the figure was 0.0005 to 0.05 µM (≈ 0.000177 to 0.0177 µg/mL).
With `Cc1c(-c2ccc(-c3ccccc3F)cc2)nc2ccc(F)cc2c1C(=O)O` [brequinar, reference compound], the pIC50 (HEK-293T, read-out: IC50 on the measles virus) was 7.40.
In the case of `CCOc1nn(-c2ccc(C3CC3)cn2)c(C)c1I` [example 108, 5-cyclopropyl-2-(3-ethoxy-4-iodo-5-methyl-1H-pyrazol-1-yl)pyridine], the MIC50 is greater than 5 µM.
The same measure, in the same setting: for `Cc1ccc(-n2nc(OC(C)C)c(Oc3c(F)cccc3F)c2C)nn1` [example 12, 3-(4-(2,6-difluorophenoxy)-3-isopropoxy-5-methyl-1H-pyrazol-1-yl)-6-methylpyridazine] the value was 0.0005 to 0.05 µM (≈ 0.00018 to 0.018 µg/mL).
On the same count and under the same terms, with `CC(=O)c1ccc(-n2nc(OC(C)C)c(Oc3c(F)cccc3F)c2C)nc1` [example 87, 1-(6-(4-(2,6-difluorophenoxy)-3-isopropoxy-5-methyl-1H-pyrazol-1-yl)pyridin-3-yl)ethanone] the figure was 0.05 to 0.5 µM (≈ 0.0194 to 0.194 µg/mL); with `Cc1c(Cc2ccccc2)c(O)nn1-c1ncc(C2CC2)cn1` [example 136, 4-benzyl-1-(5-cyclopropylpyrimidin-2-yl)-5-methyl-1H-pyrazol-3-ol], 0.5 to 5 µM (≈ 0.153 to 1.53 µg/mL).
Still for that read-out and setting: for `CCc1cnc(-n2nc(OC(C)C)c(Oc3c(F)cccc3F)c2C)nc1O` [example 117, 2-(4-(2,6-difluorophenoxy)-3-isopropoxy-5-methyl-1H-pyrazol-1-yl)-5-ethylpyrimidin-4-ol] the value was 0.0005 to 0.05 µM (≈ 0.000195 to 0.0195 µg/mL).

The pIC50 is −log10 of the IC50, conventionally taken in molar units.
